In patent publication US20250368648A1, “MULTI-CYCLIC IRAK AND FLT3 INHIBITING COMPOUNDS AND USES THEREOF” (CHILDREN'S HOSPITAL MEDICAL CENTER, priority 2022, published 2025):
Where two headings read alike, the source gives them in different places.

Assays:
NF-κB = test: NF-kB assay in THP-1-Blue NF-κB cells (SEAP reporter); assay type: cell-based
Procedure: THP-1-Blue NF-κB cells (InvivoGen) carrying a stable integrated NF-κB-inducible secreted embryonic alkaline phosphatase (SEAP) reporter construct were plated at a concentration of 1×10^5 cells per well. The cells were stimulated with Pam3CSK4 (1 ng/mL) or hIL1B (Ing/mL). After 10-20 minutes, the cells were then treated with vehicle (DMSO) or serial dilutions of the test compounds (10 doses tested for each test compound, with a 1:10 dilution series starting at 1 μM or 3 μM) with a final volume of 200 μL for 24 hours at 37° C. After 24 hours, the cells were centrifuged and 20 IL supernatant was incubated with 180 μL QUANTI-Blue reagent at 37° C. for 30-60 minutes. The levels of NF-κB-induced was measured in a microplate reader at 620 nm.

IRAK1 = biological target: T1, IRAK1 (Homo sapiens, UniProt P51617); test: RBC HotSpot Kinase Assay, IRAK1; assay type: biochemical; conditions: HotSpot functional assay, isolated kinase enzyme, 33P-ATP
T1 construct: purchased RBC (Reaction Biology) HotSpot assay
T1 sequence (P51617 whole entry): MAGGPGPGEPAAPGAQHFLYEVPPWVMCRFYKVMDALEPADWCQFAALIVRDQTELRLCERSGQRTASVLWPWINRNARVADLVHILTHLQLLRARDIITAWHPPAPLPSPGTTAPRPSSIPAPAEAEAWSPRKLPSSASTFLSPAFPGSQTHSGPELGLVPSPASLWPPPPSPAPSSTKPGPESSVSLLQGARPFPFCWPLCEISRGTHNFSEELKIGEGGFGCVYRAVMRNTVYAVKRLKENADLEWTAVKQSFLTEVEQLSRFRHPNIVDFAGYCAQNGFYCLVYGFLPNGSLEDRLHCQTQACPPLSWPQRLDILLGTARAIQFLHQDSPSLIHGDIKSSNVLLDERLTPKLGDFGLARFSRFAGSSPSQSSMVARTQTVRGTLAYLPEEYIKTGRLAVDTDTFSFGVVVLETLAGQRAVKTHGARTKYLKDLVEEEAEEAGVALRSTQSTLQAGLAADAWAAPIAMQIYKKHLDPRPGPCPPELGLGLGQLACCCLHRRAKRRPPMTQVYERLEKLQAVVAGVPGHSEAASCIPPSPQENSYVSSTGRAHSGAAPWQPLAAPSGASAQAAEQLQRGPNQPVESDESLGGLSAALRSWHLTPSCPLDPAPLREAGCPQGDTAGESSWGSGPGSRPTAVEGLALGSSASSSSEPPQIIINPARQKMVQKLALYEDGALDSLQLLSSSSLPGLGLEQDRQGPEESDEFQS
Method in brief: (§1)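 Isolated kinases, possibly truncated or lacking regulatory receptor regions, were preincubated with compound for 20 min at room temp in 20 mM Hepes pH 7.5, 10 mM MgCl2, 1 mM EGTA, 2 mM DTT, 1% DMSO. Reactions were started with ^33P-ATP and run 2 h at room temperature; activity was read by P81 filter binding.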

FLT3 = biological target: T2, FLT3 (Homo sapiens, UniProt P36888); test: RBC HotSpot Kinase Assay, FLT3; assay type: biochemical; set-up: purchased RBC (Reaction Biology) HotSpot assay; conditions: HotSpot functional assay, isolated kinase enzyme, 33P-ATP
T2 sequence (P36888 27-993): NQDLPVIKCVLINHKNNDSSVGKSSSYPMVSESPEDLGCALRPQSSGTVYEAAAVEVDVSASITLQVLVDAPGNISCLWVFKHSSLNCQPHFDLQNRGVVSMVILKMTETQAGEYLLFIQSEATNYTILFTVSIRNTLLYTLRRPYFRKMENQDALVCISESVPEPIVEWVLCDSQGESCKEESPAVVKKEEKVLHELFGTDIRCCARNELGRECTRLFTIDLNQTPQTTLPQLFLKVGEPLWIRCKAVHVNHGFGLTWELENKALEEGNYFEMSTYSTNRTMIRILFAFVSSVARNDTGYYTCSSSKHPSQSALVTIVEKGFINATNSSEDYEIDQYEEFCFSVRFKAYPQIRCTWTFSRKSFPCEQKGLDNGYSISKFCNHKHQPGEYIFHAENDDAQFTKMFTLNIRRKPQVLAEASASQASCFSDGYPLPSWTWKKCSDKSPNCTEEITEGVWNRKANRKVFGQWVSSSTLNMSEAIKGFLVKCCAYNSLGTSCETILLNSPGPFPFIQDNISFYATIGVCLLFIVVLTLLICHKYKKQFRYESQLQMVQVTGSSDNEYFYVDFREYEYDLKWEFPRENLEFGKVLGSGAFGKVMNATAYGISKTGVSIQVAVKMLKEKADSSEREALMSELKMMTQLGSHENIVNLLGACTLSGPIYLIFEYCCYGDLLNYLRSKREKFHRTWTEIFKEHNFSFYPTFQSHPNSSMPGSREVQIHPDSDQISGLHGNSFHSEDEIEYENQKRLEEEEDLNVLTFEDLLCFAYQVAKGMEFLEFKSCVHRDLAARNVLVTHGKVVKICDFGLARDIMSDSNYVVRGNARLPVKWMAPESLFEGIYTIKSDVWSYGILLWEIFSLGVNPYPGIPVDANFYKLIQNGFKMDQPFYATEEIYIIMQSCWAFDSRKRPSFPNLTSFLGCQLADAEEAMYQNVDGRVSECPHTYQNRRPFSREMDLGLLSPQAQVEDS
Method in brief: as §1

IRAK4 = biological target: T3, IRAK4 (Homo sapiens, UniProt Q9NWZ3); test: RBC HotSpot Kinase Assay, IRAK4; assay type: biochemical; set-up: purchased RBC (Reaction Biology) HotSpot assay; conditions: HotSpot functional assay, isolated kinase enzyme, 33P-ATP
T3 sequence (Q9NWZ3 1-460): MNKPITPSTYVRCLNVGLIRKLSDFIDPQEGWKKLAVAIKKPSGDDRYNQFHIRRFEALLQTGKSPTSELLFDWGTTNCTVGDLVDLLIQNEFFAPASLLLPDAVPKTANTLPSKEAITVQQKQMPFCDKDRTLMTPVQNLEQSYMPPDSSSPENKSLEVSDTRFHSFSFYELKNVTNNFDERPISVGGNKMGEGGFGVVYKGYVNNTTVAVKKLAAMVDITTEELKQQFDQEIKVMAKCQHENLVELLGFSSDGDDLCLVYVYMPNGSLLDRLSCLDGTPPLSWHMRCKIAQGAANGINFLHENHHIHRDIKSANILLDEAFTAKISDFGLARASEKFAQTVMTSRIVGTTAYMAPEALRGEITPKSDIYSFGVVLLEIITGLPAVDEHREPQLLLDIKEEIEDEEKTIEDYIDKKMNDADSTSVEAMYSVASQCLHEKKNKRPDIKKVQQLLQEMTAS
Method in brief: as §1

MOLM14 D835Y cells = test: MOLM14 D835Y cell viability assay (Cell Titer Glo); assay type: cell-based; conditions: Homo sapiens, MOLM-14, 48 h
Procedure: The cell line has activated FLT3 receptors which carry additional resistance mutations in the kinase domain (D835Y).
MOLM14 D835Y cells were grown in RPMI-1640 media supplemented with 20% fetal bovine serum (FBS). […] After cell addition, 23 nL of test compound were transferred into individual wells (22 doses tested for each test compound, with a 1:2 dilution series starting at 10 μM) via a 1536 pin-tool. Bortezomib (final concentration 2.3 μM) was used as a positive control for cell cytotoxicity.

[1] = THP-1-Blue NF-κB cells stimulated with Pam3CSK4, 24 hours, read-out: NF-κB Pam3SCK4 IC50
[2] = THP-1-Blue NF-κB cells stimulated with hIL1B, 24 hours, read-out: NF-κB IL1B IC50

IC50 (NF-κB; [1]) [nM]	IC50 (NF-κB; [2]) [nM]	SMILES	IC50 (IRAK1) [nM]	IC50 (FLT3) [nM]	IC50 (IRAK4) [nM]	IC50 (MOLM14 D835Y cells) [nM]
2560	2560	COc1cc2ncc(-c3nc(N[C@@H]4CCCNC4)c(F)cc3F)n2nc1C1CC(C)(C)C1 [Compound 7a, (R)-6-(6-(3,3-dimethylcyclobutyl)-7-methoxyimidazo[1,2-b]pyridazin-3-yl)-3,5-difluoro-N-(piperidin-3-yl)pyridin-2-amine]	22	< 0.5	13	
203	481	COc1cc2ncc(-c3ccc(C#N)c(N[C@@H]4CCCNC4)n3)n2nc1C1CC1 [Compound 28a, (R)-6-(6-cyclopropyl-7-methoxyimidazo[1,2-b]pyridazin-3-yl)-2-(piperidin-3-ylamino)nicotinonitrile]	836	< 0.5	13	
66	70	COc1cc2ncc(-c3ccc(C#N)c(N[C@H]4CNCC[C@@H]4F)n3)n2nc1C1CC1 [Compound 29a, 6-(6-cyclopropyl-7-methoxyimidazo[1,2-b]pyridazin-3-yl)-2-(((3S,4S)-4-fluoropiperidin-3-yl)amino)nicotinonitrile]	10	< 0.5	< 0.5	
		COc1cc2ncc(-c3nc(N[C@H]4CNCC[C@@H]4F)ccc3C)n2nc1C1CC1 [Compound 39a, 6-(6-cyclopropyl-7-methoxyimidazo[1,2-b]pyridazin-3-yl)-N-((3S,4S)-4-fluoropiperidin-3-yl)-5-methylpyridin-2-amine]	3360	< 0.5	45	129
		COc1cc2ncc(-c3nc(N[C@@H]4CCCNC4)ccc3C)n2nc1C1CC1 [Compound 40a, (R)-6-(6-cyclopropyl-7-methoxyimidazo[1,2-b]pyridazin-3-yl)-5-methyl-N-(piperidin-3-yl)pyridin-2-amine]	> 10000	< 0.5	18	129
		COc1cc2ncc(-c3ccc(C)c(N[C@@H]4CCCNC4)n3)n2nc1C1CC1 [Compound 41a, (R)-6-(6-cyclopropyl-7-methoxyimidazo[1,2-b]pyridazin-3-yl)-3-methyl-N-(piperidin-3-yl)pyridin-2-amine]	> 10000	105	> 10000	1620
		COc1cc2ncc(-c3ccc(C)c(N[C@H]4CNC[C@@H]4F)n3)n2nc1C1CC1 [Compound 42a, 6-(6-cyclopropyl-7-methoxyimidazo[1,2-b]pyridazin-3-yl)-N-((3S,4S)-4-fluoropyrrolidin-3-yl)-3-methylpyridin-2-amine]	> 10000	135	8430	7250
		COc1cc2ncc(-c3nc(N[C@H]4CNC[C@@H]4F)ccc3C)n2nc1C1CC1 [Compound 43a, 6-(6-cyclopropyl-7-methoxyimidazo[1,2-b]pyridazin-3-yl)-N-((3S,4S)-4-fluoropyrrolidin-3-yl)-5-methylpyridin-2-amine]	8270	0.7	341	646
		COc1cc2ncc(-c3nc(N[C@@H]4CCCNC4)ccc3F)n2nc1C1CC1 [Compound 44a, (R)-6-(6-cyclopropyl-7-methoxyimidazo[1,2-b]pyridazin-3-yl)-5-fluoro-N-(piperidin-3-yl)pyridin-2-amine]	62	< 0.5	2	3
		COc1cc2ncc(-c3ccc(F)c(N[C@H]4CNCC[C@@H]4F)n3)n2nc1C1CC1 [Compound 48a, 6-(6-cyclopropyl-7-methoxyimidazo[1,2-b]pyridazin-3-yl)-3-fluoro-N-((3S,4S)-4-fluoropiperidin-3-yl)pyridin-2-amine]	169	< 0.5	1	26
		COc1cc2ncc(-c3ccc(F)c(N[C@@H]4CCCNC4)n3)n2nc1C1CC1 [Compound 49a, (R)-6-(6-cyclopropyl-7-methoxyimidazo[1,2-b]pyridazin-3-yl)-3-fluoro-N-(piperidin-3-yl)pyridin-2-amine]	449	< 0.5	3	51
312	410	COc1cc2ncc(-c3nc(N[C@@H]4CCCNC4)c(F)cc3F)n2nc1C12CC(C1)C2 [Compound 65a, (R)-6-(6-(bicyclo[1.1.1]pentan-1-yl)-7-methoxyimidazo[1,2-b]pyridazin-3-yl)-3,5-difluoro-N-(piperidin-3-yl)pyridin-2-amine]	18	< 0.5	9	
80	97	COc1cc2ncc(-c3nc(N[C@H]4CNC[C@@H]4F)c(F)cc3F)n2nc1C1COC1 [Compound 71a, 3,5-difluoro-N-((3S,4S)-4-fluoropyrrolidin-3-yl)-6-(7-methoxy-6-(oxetan-3-yl)imidazo[1,2-b]pyridazin-3-yl)pyridin-2-amine]	50	< 0.5	1	
		Fc1cc(F)c(-c2cnc3cc(OCC(F)F)cnn23)nc1N[C@H]1CNC[C@@H]1F [Compound 82a, 6-(7-(2,2-difluoroethoxy)imidazo[1,2-b]pyridazin-3-yl)-3,5-difluoro-N-((3 S,4S)-4-fluoropyrrolidin-3-yl)pyridin-2-amine]	441	< 0.5	9	204
		Fc1cc(F)c(-c2cnc3cc(OCC(F)F)cnn23)nc1N[C@@H]1CCCNC1 [Compound 83a, (R)-6-(7-(2,2-difluoroethoxy)imidazo[1,2-b]pyridazin-3-yl)-3,5-difluoro-N-(piperidin-3-yl)pyridin-2-amine]	1750	0.5	53	91
		Fc1cc(F)c(-c2cnc3cc(OCC(F)F)cnn23)nc1N[C@H]1CNCC[C@@H]1F [Compound 84a, 6-(7-(2,2-difluoroethoxy)imidazo[1,2-b]pyridazin-3-yl)-3,5-difluoro-N-((3S,4S)-4-fluoropiperidin-3-yl)pyridin-2-amine]	849	< 0.5	4	46
